According to patent US20260184675A1, “CHIRAL ISOMERIC SULFITE COMPOUND AND APPLICATION THEREOF” (Chengdu Hanova BioSciences Co., Ltd, priority 2024, published 2026):

What was measured:
eggs of Panonychus citri = test: Effect on hatching of eggs of Panonychus citri, leaf disc method; type: in vivo; conditions: 1 ppm; for Hatching rate (%), Replicate 1 / Hatching rate (%), Replicate 2 / Hatching rate (%), Replicate 3 / Number of hatched larvae 5 days after insecticide delivery, Replicate 1 / Number of hatched larvae 5 days after insecticide delivery, Replicate 2 / Number of hatched larvae 5 days after insecticide delivery, Replicate 3: Panonychus citri eggs; for Hatching rate (%), Replicate 1 / Hatching rate (%), Replicate 2 / Hatching rate (%), Replicate 3: 5 days after delivery; for Number of hatched larvae 5 days after insecticide delivery, Replicate 1 / Number of hatched larvae 5 days after insecticide delivery, Replicate 2 / Number of hatched larvae 5 days after insecticide delivery, Replicate 3: leaf disc
eggs of Aleyrodidae = test: Effect on hatching of eggs of Aleyrodidae, leaf disc method; type: in vivo; conditions: 10 ppm; for Hatching rate (%), Replicate 1 / Hatching rate (%), Replicate 2 / Hatching rate (%), Replicate 3 / Number of hatched larvae 5 days after insecticide delivery, Replicate 1 / Number of hatched larvae 5 days after insecticide delivery, Replicate 2 / Number of hatched larvae 5 days after insecticide delivery, Replicate 3: Aleyrodidae eggs; for Hatching rate (%), Replicate 1 / Hatching rate (%), Replicate 2 / Hatching rate (%), Replicate 3: 5 days after delivery; for Number of hatched larvae 5 days after insecticide delivery, Replicate 1 / Number of hatched larvae 5 days after insecticide delivery, Replicate 2 / Number of hatched larvae 5 days after insecticide delivery, Replicate 3: leaf disc
How it was run: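 Inhibition of Aleyrodidae egg hatching was tested with a leaf disc method at 10 ppm. Egg numbers on each disc were counted under a microscope before treatment. Discs bearing eggs were soaked for 10 seconds in clear water or test solution, removed, and kept under moist conditions. Hatching was checked five days after insecticide delivery and hatched larvae were counted.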

[1] = system: eggs of Spodoptera litura; test: Effect on hatching of eggs of Spodoptera litura, egg piece soaking; type: in vivo; conditions: Spodoptera litura eggs, 500 ppm; for Hatching rate (%), Replicate 1 / Hatching rate (%), Replicate 2 / Hatching rate (%), Replicate 3: 4 days after delivery; for Number of unhatched larvae 4 days after insecticide delivery, Replicate 1 / Number of unhatched larvae 4 days after insecticide delivery, Replicate 2 / Number of unhatched larvae 4 days after insecticide delivery, Replicate 3: soaked 10 minutes
How it was run: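 Egg pieces of about 60 eggs were soaked 10 min in test agent at 500 ppm, blotted, then held singly at 24±1 °C, 80±10% RH, 12:12 L:D. Hatched and unhatched eggs were counted on day 4 to give hatching rate and control effect; 3 replicates.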

[2] = system: eggs of Harmonia axyridis; test: Effect on hatching of eggs of Harmonia axyridis, egg card immersion; type: in vivo; conditions: 100 ppm; for Number of hatched larvae 4 days after insecticide delivery, Replicate 1 / Number of hatched larvae 4 days after insecticide delivery, Replicate 2 / Number of hatched larvae 4 days after insecticide delivery, Replicate 3: Harmonia axyridis egg cards, immersed 30 seconds; for Hatching rate (%), Replicate 1 / Hatching rate (%), Replicate 2 / Hatching rate (%), Replicate 3: Harmonia axyridis eggs, 4 days after delivery
How it was run: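 Egg cards (~20 eggs each) dipped 30 s in 100 ppm insecticide, air dried and kept moist at 27° C; 5 cards per treatment, 3 replicates. Hatching assessed 4 days after treatment against pre-treatment egg counts, and control effect calculated by formula.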

Magnaporthe grisea = type: cell-based; conditions: 100 ppm; for Average antifungal rate (%) / Antifungal rate of Magnaporthe grisea (%), Replicate 1 / Antifungal rate of Magnaporthe grisea (%), Replicate 2 / Antifungal rate of Magnaporthe grisea (%), Replicate 3: 96-well plate; for Average antifungal rate (%): average of 3 replicates

Structure (SMILES)	inhibitory effect on the hatching of eggs of Panonychus citri (in words) (eggs of Panonychus citri)	Hatching rate (%), Replicate 1 (eggs of Panonychus citri)	Hatching rate (%), Replicate 2 (eggs of Panonychus citri)	Hatching rate (%), Replicate 3 (eggs of Panonychus citri)	Number of hatched larvae 5 days after insecticide delivery, Replicate 1 (eggs of Panonychus citri)	Number of hatched larvae 5 days after insecticide delivery, Replicate 2 (eggs of Panonychus citri)	Number of hatched larvae 5 days after insecticide delivery, Replicate 3 (eggs of Panonychus citri)	inhibitory activity on the hatching of eggs of Aleyrodidae (in words) (eggs of Aleyrodidae)	Hatching rate (%), Replicate 1 (eggs of Aleyrodidae)	Hatching rate (%), Replicate 2 (eggs of Aleyrodidae)	Hatching rate (%), Replicate 3 (eggs of Aleyrodidae)	Number of hatched larvae 5 days after insecticide delivery, Replicate 1 (eggs of Aleyrodidae)	Number of hatched larvae 5 days after insecticide delivery, Replicate 2 (eggs of Aleyrodidae)	Number of hatched larvae 5 days after insecticide delivery, Replicate 3 (eggs of Aleyrodidae)	Hatching rate (%), Replicate 1 [1]	Hatching rate (%), Replicate 2 [1]	Hatching rate (%), Replicate 3 [1]	Number of unhatched larvae 4 days after insecticide delivery, Replicate 1 [1]	Number of unhatched larvae 4 days after insecticide delivery, Replicate 2 [1]	Number of unhatched larvae 4 days after insecticide delivery, Replicate 3 [1]	further results
CC(C)(COc1ccc(Cl)cc1Cl)OS(=O)OCCF (centres unmarked) [Compound 10]	good inhibitory effects	1.01%	0.00%	0.00%	1	0	0	strong inhibitory activities	0.76%	0.00%	1.61%	1	0	2	41.27%	40.98%	42.11%	37	36	33	inhibitory activity on the hatching of eggs of Harmonia axyridis (in words) [2]: strong inhibitory activities; Number of hatched larvae 4 days after insecticide delivery, Replicate 1 [2]: 4; Number of hatched larvae 4 days after insecticide delivery, Replicate 2 [2]: 3; Number of hatched larvae 4 days after insecticide delivery, Replicate 3 [2]: 7; Hatching rate (%), Replicate 1 [2]: 4.04%; Hatching rate (%), Replicate 2 [2]: 3.85%; Hatching rate (%), Replicate 3 [2]: 5.56%; inhibitory rate against Magnaporthe grisea (in words) (Magnaporthe grisea): strong inhibitory rate; Average antifungal rate (%) (Magnaporthe grisea): 94.26%; Antifungal rate of Magnaporthe grisea (%), Replicate 1 (Magnaporthe grisea): 93.89%; Antifungal rate of Magnaporthe grisea (%), Replicate 2 (Magnaporthe grisea): 94.52%; Antifungal rate of Magnaporthe grisea (%), Replicate 3 (Magnaporthe grisea): 94.36%
CC(C)(COS(=O)OCCF)Oc1ccc(Cl)cc1Cl (centres unmarked) [Compound 10′]	good inhibitory effects	0.00%	0.73%	0.92%	0	1	1	strong inhibitory activities	2.02%	0.97%	1.05%	2	1	1	40.63%	41.94%	42.37%	38	36	34	inhibitory activity on the hatching of eggs of Harmonia axyridis (in words) [2]: strong inhibitory activities; Number of hatched larvae 4 days after insecticide delivery, Replicate 1 [2]: 5; Number of hatched larvae 4 days after insecticide delivery, Replicate 2 [2]: 5; Number of hatched larvae 4 days after insecticide delivery, Replicate 3 [2]: 6; Hatching rate (%), Replicate 1 [2]: 5.75%; Hatching rate (%), Replicate 2 [2]: 5.26%; Hatching rate (%), Replicate 3 [2]: 4.92%; inhibitory rate against Magnaporthe grisea (in words) (Magnaporthe grisea): strong inhibitory rate; Average antifungal rate (%) (Magnaporthe grisea): 94.31%; Antifungal rate of Magnaporthe grisea (%), Replicate 1 (Magnaporthe grisea): 94.01%; Antifungal rate of Magnaporthe grisea (%), Replicate 2 (Magnaporthe grisea): 95.16%; Antifungal rate of Magnaporthe grisea (%), Replicate 3 (Magnaporthe grisea): 93.77%
CCC(COc1ccc(Cl)cc1Cl)OS(=O)OCCF (centres unmarked) [Compound 19]	good inhibitory effects	0.00%	0.00%	0.00%	0	0	0	strong inhibitory activities	0.00%	0.00%	0.00%	0	0	0	29.41%	30.16%	29.82%	36	44	40	inhibitory activity on the hatching of eggs of Harmonia axyridis (in words) [2]: strong inhibitory activities; Number of hatched larvae 4 days after insecticide delivery, Replicate 1 [2]: 3; Number of hatched larvae 4 days after insecticide delivery, Replicate 2 [2]: 5; Number of hatched larvae 4 days after insecticide delivery, Replicate 3 [2]: 4; Hatching rate (%), Replicate 1 [2]: 3.26%; Hatching rate (%), Replicate 2 [2]: 4.45%; Hatching rate (%), Replicate 3 [2]: 4.17%; inhibitory rate against Magnaporthe grisea (in words) (Magnaporthe grisea): strong inhibitory rate; Average antifungal rate (%) (Magnaporthe grisea): 95.57%; Antifungal rate of Magnaporthe grisea (%), Replicate 1 (Magnaporthe grisea): 97.23%; Antifungal rate of Magnaporthe grisea (%), Replicate 2 (Magnaporthe grisea): 95.14%; Antifungal rate of Magnaporthe grisea (%), Replicate 3 (Magnaporthe grisea): 94.35%
CCC(COS(=O)OCCF)Oc1ccc(Cl)cc1Cl (centres unmarked) [Compound 19′]	good inhibitory effects	0.00%	0.00%	0.00%	0	0	0	strong inhibitory activities	0.00%	0.00%	0.00%	0	0	0	32.76%	32.14%	35.94%	39	38	41	inhibitory activity on the hatching of eggs of Harmonia axyridis (in words) [2]: strong inhibitory activities; Number of hatched larvae 4 days after insecticide delivery, Replicate 1 [2]: 4; Number of hatched larvae 4 days after insecticide delivery, Replicate 2 [2]: 5; Number of hatched larvae 4 days after insecticide delivery, Replicate 3 [2]: 7; Hatching rate (%), Replicate 1 [2]: 4.49%; Hatching rate (%), Replicate 2 [2]: 5.21%; Hatching rate (%), Replicate 3 [2]: 6.48%; inhibitory rate against Magnaporthe grisea (in words) (Magnaporthe grisea): strong inhibitory rate; Average antifungal rate (%) (Magnaporthe grisea): 92.59%; Antifungal rate of Magnaporthe grisea (%), Replicate 1 (Magnaporthe grisea): 91.33%; Antifungal rate of Magnaporthe grisea (%), Replicate 2 (Magnaporthe grisea): 93.48%; Antifungal rate of Magnaporthe grisea (%), Replicate 3 (Magnaporthe grisea): 92.95%
